Reference: patent US20250134874A1, “PHARMACEUTICAL FORMULATIONS COMPRISING 3-({[(4R)-7-{METHYL[4-(PROPAN-2-YL)PHENYL]AMINO}-3,4-DIHYDRO-2H-1-BENZOPYRAN-4-YL]METHYL}AMINO)PYRIDINE-4-CARBOXYLIC ACID” (TACHYON THERAPEUTICS, INC., priority 2021, published 2025)

What was measured:
[1] = In vitro dissolution testing (USP Apparatus 1, basket); type: physicochemical; settings: DI water
Protocol: Dissolution and assay testing for API, F1, F7, F9, F10, F11 and F12.
• 6. Transfer 500 mL of DI water dissolution medium into each vessel. • 7. Equilibrate the dissolution medium to 37.0±0.5° C. • 8. Transfer 600 mg of each formulation granule into a capsule. • 9. Transfer a capsule into a basket and lower to the position. Start stirring at 100 RPM. • 10. At the stated time(s), sample 1 mL solutions by auto-sampler. Assay Sample Preparation (0.3 mg/mL): • 11. Weigh out 18 mg of granules into a […] volumetric flask. • 12. Dissolve and dilute up to the volume with Diluent (50% ACN in H2O). • 13. Mix well.

[2] = Particle size distribution by dynamic light scattering (Zetasizer); type: physicochemical; settings: in length
Protocol: Results: Particle size distribution as determined by dynamic light scattering of Compound 1 lysine salt nanosuspension post milling is shown below in Table 1B. Samples for particle size distribution was prepared by diluting the Nano milled sample by 100-fold with Di-water. Zetasizer was utilized to measure particle size distribution. PdI is the representation of the distribution of size populations within a given sample. This is a numerical range from 0.0 (for a perfectly uniform sample) through 1.0 (for a highly polydisperse sample with multiple particle size populations). The value D10 refers to a diameter of particles in the sample wherein 10% of the particles in the sample have a diameter smaller than this value (118.8 nm). The value D50 refers to a diameter of particles in the sample wherein 50% of the particles have a diameter smaller than this value (249.0 nm). The value D90 refers to a diameter of particles in the sample wherein 90% of the particles in the sample have a diameter smaller than this value (611 nm).
The stability of the nanosuspension based on particle size distribution under refrigerated condition and room condition is shown below in Table 2.

CC(C)c1ccc(N(C)c2ccc3c(c2)OCC[C@H]3CNc2cnccc2C(=O)O)cc1.NCCCC[C@H](N)C(=O)O [Compound 1 Lysine salt, 3-({[(4R)-7-{methyl[4-(propan-2-yl)phenyl]amino}-3,4-dihydro-2H-1-benzopyran-4-yl]methyl}amino)pyridine-4-carboxylic acid, L-lysine salt]
release after 120 minutes [1]: no release at all | initial particle size prior to milling [2]: 6-15 micrometer
